Active and inactive are the calls of the source. The rule behind the calls is not given here.
Experiments:
Fusarium verticillioides [1] = assay: Growth inhibition of Fusarium verticillioides assessed as inhibition of mycelial growth up to 160 g/l incubated for 15 min followed by compound washout measured after 7 days in absence of surfactant APSA 80; format: functional
Colletotrichum musae [2] = assay: Growth inhibition of Colletotrichum musae assessed as inhibition of mycelial growth up to 160 g/l incubated for 15 min followed by compound washout measured after 7 days in absence of surfactant APSA 80; format: functional
Thielaviopsis paradoxa [3] = assay: Growth inhibition of Ceratocystis paradoxa assessed as inhibition of mycelial growth up to 160 g/l incubated for 15 min followed by compound washout measured after 7 days in presence of surfactant APSA 80; format: functional
Fusarium verticillioides [4] = assay: Antifungal activity against Fusarium verticillioides infected Cavendish banana fruit assessed as reduction in crown rot incubated for 15 min followed by compound washout measured after 3 weeks in presence of surfactant APSA 80 relative to control; format: functional; parameters: concentration or dose not given beside the values; details: pooled result: one value given for 4 cell lines, strains, targets or settings
Fusarium verticillioides [5] = assay: Antifungal activity against Fusarium verticillioides infected Cavendish banana fruit assessed as reduction in crown rot incubated for 15 min followed by compound washout measured after 3 weeks in absence of surfactant APSA 80 relative to control; format: functional; parameters: concentration or dose not given beside the values; details: pooled result: one value given for 4 cell lines, strains, targets or settings
Fusarium verticillioides [6] = assay: Antifungal activity against Fusarium verticillioides infected Cavendish banana fruit assessed as reduction in crown rot incubated for 15 min followed by compound washout measured after 2 weeks in presence of surfactant APSA 80 relative to control; format: functional; parameters: concentration or dose not given beside the values
Colletotrichum musae [7] = assay: Antifungal activity against Colletotrichum musae infected Cavendish banana fruit assessed as reduction in crown rot incubated for 15 min followed by compound washout measured after 2 weeks in presence of surfactant APSA 80 relative to control; format: functional; parameters: concentration or dose not given beside the values
Thielaviopsis paradoxa [8] = assay: Antifungal activity against Ceratocystis paradoxa assessed as inhibition of conidium germination at 5 g/l incubated for 15 min followed by compound washout measured after 7 days by microscopic analysis in presence of surfactant APSA 80; format: functional, organism-based
Fusarium verticillioides [9] = assay: Antifungal activity against Fusarium verticillioides assessed as inhibition of conidium germination at 5 g/l incubated for 15 min followed by compound washout measured after 2 days by microscopic analysis in absence of surfactant APSA 80; format: functional, organism-based
Thielaviopsis paradoxa [10] = assay: Antifungal activity against Ceratocystis paradoxa infected Cavendish banana fruit assessed as reduction in crown rot incubated for 15 min followed by compound washout measured after 2 weeks in presence of surfactant APSA 80 relative to control; format: functional; parameters: concentration or dose not given beside the values
Lasiodiplodia theobromae [11] = assay: Antifungal activity against Lasiodiplodia theobromae infected Cavendish banana fruit assessed as reduction in crown rot incubated for 15 min followed by compound washout measured after 2 weeks in presence of surfactant APSA 80 relative to control; format: functional; parameters: concentration or dose not given beside the values
Fusarium verticillioides [12] = assay: Antifungal activity against Fusarium verticillioides infected Cavendish banana fruit assessed as reduction in crown rot incubated for 15 min followed by compound washout measured after 2 weeks in absence of surfactant APSA 80 relative to control; format: functional; parameters: concentration or dose not given beside the values
Colletotrichum musae [13] = assay: Antifungal activity against Colletotrichum musae infected Cavendish banana fruit assessed as reduction in crown rot incubated for 15 min followed by compound washout measured after 2 weeks in absence of surfactant APSA 80 relative to control; format: functional; parameters: concentration or dose not given beside the values
Thielaviopsis paradoxa [14] = assay: Antifungal activity against Ceratocystis paradoxa infected Cavendish banana fruit assessed as reduction in crown rot incubated for 15 min followed by compound washout measured after 2 weeks in absence of surfactant APSA 80 relative to control; format: functional; parameters: concentration or dose not given beside the values
Lasiodiplodia theobromae [15] = assay: Antifungal activity against Lasiodiplodia theobromae infected Cavendish banana fruit assessed as reduction in crown rot incubated for 15 min followed by compound washout measured after 2 weeks in absence of surfactant APSA 80 relative to control; format: functional; parameters: concentration or dose not given beside the values
Fusarium verticillioides [16] = assay: Antifungal activity against Fusarium verticillioides infected Cavendish banana fruit assessed as reduction in crown rot incubated for 15 min followed by compound washout measured after 1 week in presence of surfactant APSA 80 relative to control; format: functional; parameters: concentration or dose not given beside the values
Colletotrichum musae [17] = assay: Antifungal activity against Colletotrichum musae infected Cavendish banana fruit assessed as reduction in crown rot incubated for 15 min followed by compound washout measured after 1 week in presence of surfactant APSA 80 relative to control; format: functional; parameters: concentration or dose not given beside the values
Thielaviopsis paradoxa [18] = assay: Antifungal activity against Ceratocystis paradoxa infected Cavendish banana fruit assessed as reduction in crown rot incubated for 15 min followed by compound washout measured after 1 week in presence of surfactant APSA 80 relative to control; format: functional; parameters: concentration or dose not given beside the values
Lasiodiplodia theobromae [19] = assay: Antifungal activity against Lasiodiplodia theobromae infected Cavendish banana fruit assessed as reduction in crown rot incubated for 15 min followed by compound washout measured after 1 week in presence of surfactant APSA 80 relative to control; format: functional; parameters: concentration or dose not given beside the values
Fusarium verticillioides [20] = assay: Antifungal activity against Fusarium verticillioides infected Cavendish banana fruit assessed as reduction in crown rot incubated for 15 min followed by compound washout measured after 1 week in absence of surfactant APSA 80 relative to control; format: functional; parameters: concentration or dose not given beside the values
Colletotrichum musae [21] = assay: Antifungal activity against Colletotrichum musae infected Cavendish banana fruit assessed as reduction in crown rot incubated for 15 min followed by compound washout measured after 1 week in absence of surfactant APSA 80 relative to control; format: functional; parameters: concentration or dose not given beside the values
Thielaviopsis paradoxa [22] = assay: Antifungal activity against Ceratocystis paradoxa infected Cavendish banana fruit assessed as reduction in crown rot incubated for 15 min followed by compound washout measured after 1 week in absence of surfactant APSA 80 relative to control; format: functional; parameters: concentration or dose not given beside the values
Lasiodiplodia theobromae [23] = assay: Antifungal activity against Lasiodiplodia theobromae infected Cavendish banana fruit assessed as reduction in crown rot incubated for 15 min followed by compound washout measured after 1 week in absence of surfactant APSA 80 relative to control; format: functional; parameters: concentration or dose not given beside the values
Fusarium verticillioides [24] = assay: Antifungal activity against Fusarium verticillioides assessed as reduction in colony diameter at 10 to 160 g/l incubated for 15 min followed by compound washout measured after 7 days in absence of surfactant APSA 80 relative to control; format: functional; parameters: scale not given: the % may be the effect or the level left
Colletotrichum musae [25] = assay: Antifungal activity against Colletotrichum musae assessed as reduction in colony diameter at 10 to 160 g/l incubated for 15 min followed by compound washout measured after 7 days in absence of surfactant APSA 80 relative to control; format: functional; parameters: scale not given: the % may be the effect or the level left
Thielaviopsis paradoxa [26] = assay: Antifungal activity against Ceratocystis paradoxa assessed as reduction in colony diameter at 10 to 160 g/l incubated for 15 min followed by compound washout measured after 7 days in absence of surfactant APSA 80 relative to control; format: functional; parameters: scale not given: the % may be the effect or the level left
Lasiodiplodia theobromae [27] = assay: Antifungal activity against Lasiodiplodia theobromae assessed as reduction in colony diameter at 10 to 160 g/l incubated for 15 min followed by compound washout measured after 7 days in absence of surfactant APSA 80 relative to control; format: functional; parameters: scale not given: the % may be the effect or the level left
Fusarium verticillioides [28] = assay: Antifungal activity against Fusarium verticillioides assessed as reduction in colony diameter at 10 to 160 g/l incubated for 15 min followed by compound washout measured after 7 days in presence of surfactant APSA 80 relative to control; format: functional; parameters: scale not given: the % may be the effect or the level left
Colletotrichum musae [29] = assay: Antifungal activity against Colletotrichum musae assessed as reduction in colony diameter at 10 to 160 g/l incubated for 15 min followed by compound washout measured after 7 days in presence of surfactant APSA 80 relative to control; format: functional; parameters: scale not given: the % may be the effect or the level left
Thielaviopsis paradoxa [30] = assay: Antifungal activity against Ceratocystis paradoxa assessed as reduction in colony diameter at 10 to 160 g/l incubated for 15 min followed by compound washout measured after 7 days in presence of surfactant APSA 80 relative to control; format: functional; parameters: scale not given: the % may be the effect or the level left
Lasiodiplodia theobromae [31] = assay: Antifungal activity against Lasiodiplodia theobromae assessed as reduction in colony diameter at 10 to 160 g/l incubated for 15 min followed by compound washout measured after 7 days in presence of surfactant APSA 80 relative to control; format: functional; parameters: scale not given: the % may be the effect or the level left

Row | Compound | Activity (Fusarium verticillioides [1]) | Activity (Colletotrichum musae [2]) | Activity (Thielaviopsis paradoxa [3]) | Activity (Fusarium verticillioides [4]) [%] | Activity (Fusarium verticillioides [5]) [%] | Activity (Fusarium verticillioides [6]) [%] | Activity (Colletotrichum musae [7]) [%] | Activity (Thielaviopsis paradoxa [10]) [%] | Activity (Lasiodiplodia theobromae [11]) [%] | Activity (Fusarium verticillioides [12]) [%] | Activity (Colletotrichum musae [13]) [%] | Activity (Thielaviopsis paradoxa [14]) [%] | Activity (Lasiodiplodia theobromae [15]) [%] | Activity (Fusarium verticillioides [16]) [%] | Activity (Colletotrichum musae [17]) [%] | Activity (Thielaviopsis paradoxa [18]) [%] | Activity (Lasiodiplodia theobromae [19]) [%] | Activity (Fusarium verticillioides [20]) [%] | Activity (Colletotrichum musae [21]) [%] | Activity (Thielaviopsis paradoxa [22]) [%] | further results
1 | [Ca+2].[Cl-].[Cl-] [CALCIUM CHLORIDE] | inactive | inactive | inactive | 58 | 42 | 50 | 50 | 50 | 50 | 0 | 0 | 0 | 0 | 0 | 0 | 0 | 0 | 0 | 0 | 0 | inhibition (Thielaviopsis paradoxa [8]): Active; inhibition (Fusarium verticillioides [9]): Active; Activity (Lasiodiplodia theobromae [23]): 0%; Activity (Fusarium verticillioides [24]): 5%; Activity (Colletotrichum musae [25]): 0%; Activity (Thielaviopsis paradoxa [26]): 28%; Activity (Lasiodiplodia theobromae [27]): 35%; Activity (Fusarium verticillioides [28]): 53%; Activity (Colletotrichum musae [29]): 62%; Activity (Thielaviopsis paradoxa [30]): 56%; Activity (Lasiodiplodia theobromae [31]): 87%
2 | [Cl-].[Na+] [SODIUM CHLORIDE] | inactive | inactive | inactive | 0 | -5 | 10 | 10 | 10 | 10 | 0 | 0 | 0 | 0 | 0 | 0 | 0 | 0 | 0 | 0 | 0 | Activity (Lasiodiplodia theobromae [23]): 0%; Activity (Fusarium verticillioides [24]): 83%; Activity (Colletotrichum musae [25]): 83%; Activity (Thielaviopsis paradoxa [26]): 71%; Activity (Lasiodiplodia theobromae [27]): 90%; Activity (Fusarium verticillioides [28]): 79%; Activity (Colletotrichum musae [29]): 93%; Activity (Thielaviopsis paradoxa [30]): 84%; Activity (Lasiodiplodia theobromae [31]): 94%
3 | [Na+].[O-]Cl [SODIUM HYPOCHLORITE] | 50 g/L | 30 g/L | 90 g/L | 47 | 61 | 50 | 50 | 50 | 50 | 50 | 50 | 50 | 50 | 0 | 0 | 0 | 0 | 0 | 0 | 0 | inhibition (Thielaviopsis paradoxa [8]): Active; inhibition (Fusarium verticillioides [9]): Active; Activity (Lasiodiplodia theobromae [23]): 0%; Activity (Fusarium verticillioides [24]): 0%; Activity (Colletotrichum musae [25]): 13%; Activity (Thielaviopsis paradoxa [26]): 18%; Activity (Lasiodiplodia theobromae [27]): 40%; Activity (Fusarium verticillioides [28]): 51%; Activity (Colletotrichum musae [29]): 78%; Activity (Thielaviopsis paradoxa [30]): 67%; Activity (Lasiodiplodia theobromae [31]): 92%

Source: ChEMBL document CHEMBL3044541, “Control of crown rot-causing fungal pathogens of banana by inorganic salts and a surfactant” (Crop Prot, 2007)
